From ChEMBL document CHEMBL3885861, “Open TG-GATES”

Species: Rattus norvegicus
Test: Open TG-GATES - Regimen: Single
Type: toxicity, organism-based, Sprague-Dawley
Parameters: regimen Single, gender Male, age 6 weeks
Conditions: in vivo, po, route gavage; for APTT / Bas / Eos / Fbg / Hb / Ht / Lym / MCH / MCHC / MCV / Mono / PT / Plat / RBC / Ret / WBC / Neu: tissue Blood; for KIDNEY_L / KIDNEY_R / KIDNEY_TOTAL: tissue Kidney; for LIVER: tissue Liver
[1] = 10 mg/kg, 24 h, tissue Plasma, dose level Low
[2] = 30 mg/kg, 3 h, dose level Middle
[3] = 30 mg/kg, 3 h, tissue Plasma, dose level Middle
[4] = 30 mg/kg, 6 h, dose level Middle
[5] = 30 mg/kg, 6 h, tissue Plasma, dose level Middle
[6] = 30 mg/kg, 9 h, dose level Middle
[7] = 30 mg/kg, 9 h, tissue Plasma, dose level Middle
[8] = 30 mg/kg, 24 h, dose level Middle
[9] = 30 mg/kg, 24 h, tissue Plasma, dose level Middle

## CC(=O)N1CCN(c2ccc(OCC3COC(Cn4ccnc4)(c4ccc(Cl)cc4Cl)O3)cc2)CC1 (stereo not given) [KETOCONAZOLE]
[1]
  TG: 94.4 mg/dL
  TP: 5.5 g/dL
  gamma-GTP: 1.2 IU/L
[2]
  TERMINAL_BW: 196.9 g
  APTT: 21.2 s
  Bas: 0%
  Eos: 0.4%
  Fbg: 275.6 mg/dL
  Hb: 12.7 g/dL
  Ht: 38.1%
  Lym: 77.2%
  MCH: 21.5 pg
  MCHC: 33.2%
  MCV: 64.6 fL
  Mono: 1.6%
  PT: 17.1 s
  Plat: 121.6 x10_4/uL
  RBC: 590.6 x10_4/ul
  Ret: 8.6%
  WBC: 75.8 x10_2/uL
  KIDNEY_L: 0.9 g
  KIDNEY_R: 0.9 g
  KIDNEY_TOTAL: 1.8 g
  LIVER: 9 g
[3]
  ALP: 1671.8 IU/L
  AST: 77 IU/L
  BUN: 11.6 mg/dL
  CRE: 0.2 mg/dL
  Ca: 10.8 mg/dL
  Cl: 105.2 meq/L
  DBIL: 0 mg/dL
  GLC: 188.2 mg/dL
  IP: 8.6 mg/dL
  LDH: 205.8 IU/L
  Na: 141.2 meq/L
  PL: 140.2 mg/dL
  RALB: 2.9 g/dL
  TBIL: 0.016 mg/dL
  TC: 75.8 mg/dL
  TG: 54 mg/dL
  TP: 5.4 g/dL
  gamma-GTP: 1.2 IU/L
[4]
  TERMINAL_BW: 199.3 g
  APTT: 21.8 s
  Bas: 0%
  Eos: 1%
  Fbg: 304.4 mg/dL
  Hb: 13.2 g/dL
  Ht: 39.5%
  Lym: 79.8%
  MCH: 21.1 pg
  MCHC: 33.5%
  MCV: 63.1 fL
  Mono: 2.2%
  Neu: 15.8%
  PT: 16.7 s
  Plat: 126 x10_4/uL
  RBC: 626.6 x10_4/ul
  Ret: 7.8%
  WBC: 67.8 x10_2/uL
  KIDNEY_L: 0.9 g
  KIDNEY_R: 0.9 g
  KIDNEY_TOTAL: 1.9 g
  LIVER: 8.4 g
[5]
  ALP: 1604 IU/L
  AST: 72.6 IU/L
  BUN: 10.2 mg/dL
  CRE: 0.2 mg/dL
  Ca: 10.9 mg/dL
  Cl: 105.6 meq/L
  DBIL: 0 mg/dL
  GLC: 179.4 mg/dL
  IP: 9.4 mg/dL
  LDH: 237.8 IU/L
  Na: 142 meq/L
  PL: 135 mg/dL
  RALB: 3.1 g/dL
  TBIL: 0.034 mg/dL
  TC: 75 mg/dL
  TG: 54.6 mg/dL
  TP: 5.5 g/dL
  gamma-GTP: 1.2 IU/L
[6]
  TERMINAL_BW: 200.7 g
  APTT: 21.4 s
  Bas: 0%
  Eos: 1%
  Fbg: 287 mg/dL
  Hb: 13.3 g/dL
  Ht: 39.8%
  Lym: 77.4%
  MCH: 21.4 pg
  MCHC: 33.4%
  MCV: 63.9 fL
  Mono: 1.4%
  Neu: 19.8%
  PT: 16.8 s
  Plat: 127.9 x10_4/uL
  RBC: 622.8 x10_4/ul
  Ret: 8.5%
  WBC: 52.8 x10_2/uL
  KIDNEY_L: 1 g
  KIDNEY_R: 1 g
  KIDNEY_TOTAL: 1.9 g
  LIVER: 8.3 g
[7]
  ALP: 1563 IU/L
  AST: 70.6 IU/L
  BUN: 10.6 mg/dL
  CRE: 0.2 mg/dL
  Ca: 10.6 mg/dL
  Cl: 105 meq/L
  DBIL: 0.002 mg/dL
  GLC: 176.2 mg/dL
  IP: 10 mg/dL
  LDH: 200.6 IU/L
  Na: 141.2 meq/L
  PL: 123.8 mg/dL
  RALB: 3.1 g/dL
  TBIL: 0.02 mg/dL
  TC: 65.6 mg/dL
  TG: 47 mg/dL
  TP: 5.4 g/dL
  gamma-GTP: 1.2 IU/L
[8]
  TERMINAL_BW: 217.1 g
  APTT: 20.6 s
  Bas: 0%
  Eos: 1%
  Fbg: 320.8 mg/dL
  Hb: 12.7 g/dL
  Ht: 38.5%
  Lym: 75.2%
  MCH: 21.1 pg
  MCHC: 33.1%
  MCV: 64 fL
  Mono: 1.6%
  Neu: 20.6%
  PT: 16.3 s
  Plat: 121.7 x10_4/uL
  RBC: 602 x10_4/ul
  Ret: 7.3%
  WBC: 66 x10_2/uL
  KIDNEY_L: 1 g
  KIDNEY_R: 1 g
  KIDNEY_TOTAL: 2 g
  LIVER: 10.7 g
[9]
  ALP: 1798.8 IU/L
  ALT: 49.4 IU/L
  AST: 75 IU/L
  BUN: 15.4 mg/dL
  CRE: 0.2 mg/dL
  Ca: 10.8 mg/dL
  Cl: 106.2 meq/L
  DBIL: 0 mg/dL
  GLC: 179 mg/dL
  IP: 7.5 mg/dL
  LDH: 220 IU/L
  Na: 142.4 meq/L
  PL: 148.8 mg/dL
  RALB: 3 g/dL
  TBIL: 0.004 mg/dL
  TC: 77.2 mg/dL
